Results on two compounds are retold here after US20160051629A1, “INHIBITION OF RIP KINASES FOR TREATING LYSOSOMAL STORAGE DISEASES” (YEDA RESEARCH AND DEVELOPMENT CO. LTD., priority 2013, published 2016).

The conditions of data set [1]: in vivo; cited from earlier work.
Another data set deals with Gaucher disease mice. As to the kind of experiment: Anakinra (IL-1Ra) treatment of CBE-induced Gaucher disease mice. It counts as in vivo. The procedure:
Mice were injected i.p. with 50 mg/kg/day CBE or CBE+IL-1Ra (Anakinra, 75 mg/kg) from 8 days of age. Body weight (FIG. 7A) and life span (FIG. 7B) of mice treated with either CBE only or CBE+Anakinara (n=3).
Gba^flox/flox; mice were crossed with Gba^flox/+; Nestin-Cre mice to generate Gba^flox/flox; Nestin-Cre mice (Enquist, I. B. et al. 2007. Proc. Natl. Acad. Sci. U.S.A. 104, 17483-17488) and Gba^flox/+; Nestin-Cre mice, which served as healthy controls. Genotyping was performed by PCR using genomic DNA extracted from mouse tails or embryonic brains (Farfel-Becker, T. et al. 2009. Hum. Mol. Genet. 18, 1482-1488). Both male and female mice were used. The colony was maintained in the experimental animal center of the Weizmann Institute of Science. All animal experiments were approved by the Weizmann Institute Institutional Animal Care and Use Committee. Mice deficient in galactocerebrosidase (the Twitcher mouse) were used as a model of Krabbe disease (Suzuki. K. & Taniike, M. 1995. Res. Tech. 32, 204-214), mice deficient in the β-subunit of β-hexosaminidase A and B were used as a model of Sandhoff disease (Sango, K. et al. 1995. Nat. Genet. 11, 170-176). Brains from a mouse model of the GM1 gangliosidosis (Hahn, C. N. et al. 1997. Hum. Mol. Genet. 6, 205-211), defective in lysosomal β-galactosidase, and from Niemann-Pick disease Type C1 mice (Pentchev, P. G. et al. 1984. J. Biol. Chem. 259, 5784-5791), defective in the NPC1 gene, were also used. Mice deficient in TNFα (strain B6; 129S6-Tnftm1Gkl/J, The Jackson Laboratory) were provided by Dr. David Wallach (Weizmann Institute, Israel). C57BL/6J (The Jackson Laboratory) mice were injected daily intraperitoneally with 50 mg CBE/kg body weight/day (Kanfer, J. N. et al. 1975. Biochem. Biophys. Res. Commun. 67, 85-90) or with phosphate-buffered saline from 8 days of age.

For the compound `CN1C(=O)C(Cc2c[nH]c3ccccc23)NC1=S` (centres unmarked) [Nec-1, necrostatin-1], in data set [1], the “crossing of the blood-brain barrier” value is given as “crosses the blood-brain barrier” and the half-life is around 1 h.

For the compound “Anakinra: a recombinant, non-glycosylated version of human IL-1 receptor antagonist, sold under the trade name KINERET (Amgen)”, the “clinical course of Gaucher disease mice” value with Gaucher disease mice (50 mg/kg/day CBE i.p. + IL-1Ra (Anakinra, 75 mg/kg) from 8 days of age, FIG. 7) was “improves the clinical course”. For the same compound, in the data set on Gaucher disease mice (CBE-treated mice, 50 mg/kg/day CBE i.p. + Anakinra 75 mg/kg from 8 days of age, vs CBE only, n=3, FIG. 7A), the “gain weight (body weight)” value is listed as “improves gain weight”. For the same compound, the life-span entry with Gaucher disease mice (CBE-treated mice, 50 mg/kg/day CBE i.p. + Anakinra 75 mg/kg from 8 days of age, vs CBE only, n=3, FIG. 7B) was “improves”.

What is called half-life is the time in which the quantity being followed falls by half.
